According to patent US20250235453A1, “TRIAZOLOPYRIDAZINE COMPOUNDS USEFUL AS RAC1 INHIBITORS” (Revere Pharmaceuticals, priority 2021, published 2025):

Tests used:
[1] = target: T1, Rac1 (Homo sapiens, UniProt P63000); assay: Rac Activation AlphaScreen Assay (Rac1 AS); assay type: biochemical; conditions: AlphaLisa assay; read-out: IC50 inhibitory concentration versus wild type Rac1
T1 construct: His (N)
Description: The IC50 values reported in Tables 1-6 were obtained from the Rae Activation AlphaScreen Assay (Rac1 AS) assay described in subsection 2 under the section entitled “In Vitro Assays”. “†” represents an IC50 of greater than 100 uM; “††” represents an IC50 of greater than 10 uM and less than 50 uM; and “†††” represents an IC50 of less than 10 uM. “POC” means percent of control. […] Lower POC values reflect greater inhibition. “NT” means not tested.
2. Rac Activation AlphaScreen Assay (Rac1 AS)
AlphaScreen® assays were performed in 96-well microplates in a final reaction volume of 60 μL. Recombinant His-Rac1, recombinant GST-PBD (PAK Binding Domain), donor and acceptor beads (PerkinElmer), and inhibitors were incubated in exchange buffer (20 mM Tris pH 7.5, 50 mM NaCl, 1 mM MgCl2, 1 mM EDTA, 500 nM GTPyS (guanosine 5′-[Y-thio]triphosphate)) at 37° C. Readings were performed on a Tecan M1000 pro microplate reader after 1 hour. Data was analyzed using the GraphPad Prism software (GraphPad Software, Inc.), and IC50 (dose leading to 50% disruption of complex) was calculated from the dose-response curves.

[2] = target: T2, Rac (Homo sapiens, UniProt P63000); conditions: relative to NSC23766; cited from earlier work
T2 construct: host or cells: fibroblasts

[3] = target: T3, Rac-GEF Vav2 with nucleotide-free Rac1 (G15A) (Homo sapiens, UniProt P63000, G15A); conditions: MDA-MB-435 breast cancer cells; <5 mM; cited from earlier work
T3 construct: host or cells: MDA-MB-435

[4] = target: T4, Rac-GEF Tiam-1 with Rac1 (G15A) (Homo sapiens, UniProt P63000, G15A); conditions: MDA-MB-435 cells; similar concentrations (<5 mM); cited from earlier work
T4 construct: host or cells: MDA-MB-435

[5] = oral administration in mice; cited from earlier work
[6] = in vivo, cited from earlier work
[7] = system: animal models of estrogen positive and HER2 positive breast cancer, prostate cancer, melanoma and colorectal cancer; conditions: single agent and in combination with standard of care; cited from earlier work

Q: For `CCn1c2ccccc2c2cc(Nc3ccnc(NCCCN4CCOCC4)n3)ccc21` [EHop-016], which IC50 [1] is on record?
A: The IC50 was about 10 µM.

Q: And the “more efficient than NSC23766 as an inhibitor of Rac activity” value [2]?
A: Its value is 100 fold.

Q: And the “association of the Rac-GEF Vav2 with nucleotide-free Rac1 (G15A)” value [3]?
A: Its value is “inhibits”.

Q: And the “association of the Rac-GEF Tiam-1 with Rac1 (G15A)” value [4]?
A: Its value is “does not affect”.

Q: And the systemic exposure [5]?
A: The systemic exposure was “low systemic exposure”.

Q: Which oral bioavailability ([6]; po) does the source give for `FC(F)(F)c1ccc2c(SCCCCCCn3cnc(CN4CCOCC4)c3)ccnc2c1` [GYS32661] here?
A: The oral bioavailability was “not orally bioavailable”.

Q: What about the plasma half-life [6] of the same compound?
A: Its plasma half-life is “relatively short”.

Q: What about the “activity against animal models of cancer” value [7] of the same compound?
A: The value was “very good activity”.
